Patent publication US4642332A, “Effective hormonal peptides: D-3-Pal^6 -LHRH” (The Board of Regents, The University of Texas System, priority 1985, dated 1987)

Columns and labels:
[1] = test system: pituitary cells from 21 day old rats; test: In vitro pituitary incubate assay (release of LH and FSH); type: cell-based, rat; conditions: for FSH ng/ml medium ± SEM / LH ng/ml medium ± SEM: Table V, mean of 9
Method: The data in Tables IV and V are from the in vitro assay of the peptides with the pituitary incubate. This assay measures the release of LH and FSH in an in vitro system with pituitary cells from 21 day old rats. See, Bowers, C. Y. et al. on the inhibitory effects of leutinizing hormone releasing hormone analogs. Endocrinology, 106: 674 (1980).
The abbreviations are as follows: sc-subcutaneous, SEM-standard error of the mean; NS-not significant; ng-nanogram, and ml-milliliter. The p value represents the population coefficient .rho.(rho) which signifies whether a sample coefficient is significant or a chance deviation from zero.

[2] = test system: 21 day old female rats; test: In vivo assay in rats for release of LH and FSH; design: species or system rat
Method: In vivo rat assay performed by a modification of the method of Bowers, C. Y. et al. Endocrinology, 106, 674 (1980). 21 day old female rats were injected sc with saline or peptide. Blood samples for the RIAs of LH and FSH were collected at +15, +60, +120, or +180 minutes. (Tables VI-XI).

[3] = test system: men; conditions: in men, after chronic administration; cited from earlier work
[4] = test system: advanced prostatic carcinoma; design: clinical effect in patients with urinary obstruction: dose or concentration left out as unconfirmed; conditions: subcutaneously, cited from earlier work
[5] = Table XI, 150 ng sc, +2 hrs, mean 5-6
[6] = Table XI, 150 ng sc, +3 hrs, mean 5-6

CC(C)C[C@H](NC(=O)[C@@H](Cc1c[nH]c2ccccc12)NC(=O)[C@H](Cc1ccc(O)cc1)NC(=O)[C@H](CO)NC(=O)[C@H](Cc1c[nH]c2ccccc12)NC(=O)[C@H](Cc1c[nH]cn1)NC(=O)[C@@H]1CCC(=O)N1)C(=O)N[C@@H](CCCNC(=N)N)C(=O)N1CCC[C@H]1C(=O)NCC(N)=O [D-Trp^6 -LHRH, pyroGlu--His--Trp--Ser--Tyr--D-Trp--Leu--Arg--Pro--Gly--NH2]
FSH ng/ml medium ± SEM ([1]; dosage .01 ng/ml medium): 450 ± 64 ng/mL
LH ng/ml medium ± SEM ([1]; dosage .01 ng/ml medium): 68 ± 31 ng/mL
FSH ng/ml medium ± SEM ([1]; dosage .03 ng/ml medium): 929 ± 207 ng/mL
LH ng/ml medium ± SEM ([1]; dosage .03 ng/ml medium): 209 ± 74 ng/mL
FSH ng/ml medium ± SEM ([1]; dosage .10 ng/ml medium): 1714 ± 224 ng/mL
LH ng/ml medium ± SEM ([1]; dosage .10 ng/ml medium): 646 ± 69 ng/mL
potency, D-Qal^6 -LHRH compared with D-Trp^6 -LHRH ([1]; comparable assays, statement in words): essentially equipotent
LH ng/ml Serum ± SEM ± 60 min ([2]; Table VII, dosage 10 mg/rat sc (so in the source)): 31 ± 6 ng/mL
LH ng/ml Serum ± SEM ± 15 min ([2]; Table VII, dosage 100 mg/rat sc (so in the source), ± 15 min): 51 ± 10 ng/mL
LH ng/ml Serum ± SEM ± 60 min ([2]; Table VII, dosage 100 mg/rat sc (so in the source)): 259 ± 34 ng/mL
+2 hrs LH ± SEM ng/ml serum [2, 5]: 230 ± 41 ng/mL
FSH ± SEM ng/ml serum (+2 hrs) [2, 5]: 2332 ± 388 ng/mL
+3 hrs LH ± SEM ng/ml serum [2, 6]: 117 ± 9 ng/mL
FSH ± SEM ng/ml serum (+3 hrs) [2, 6]: 2065 ± 151 ng/mL
Leydig cell function [3]: suppression of Leydig cell function
serum levels of testosterone, dihydrotestosterone and estradiol [3]: decreases
clinical effect in patients with urinary obstruction ([4]; daily doses (so in the source)): noticeable clinical improvement
pain from bone metastases in patients with more advanced prostatic disease ([4]; daily doses of 100 g and 50 g, respectively (so in the source)): relieved
